14 compounds from ChEMBL document CHEMBL5241077 (Eur J Med Chem, 2021) can be followed below.

The subject of assay [1] is dengue virus type 2. The assay is described as follows: Antiviral activity against DENV2 […] infected in hamster BHK-21 cells assessed as reduction viral titer incubated for 48 hrs by plaque assay. The format is functional, organism-based. The settings on record: BHK-21, 48 h.
Assay [2] deals with dengue virus type 2. The assay is described as follows: Antiviral activity against DENV2 New Guinea C infected in hamster BHK-21 cells assessed as reduction viral titer incubated for 48 hrs by plaque assay. The format is functional, organism-based. The settings on record: BHK-21, 48 h.
The subject of assay [3] is dengue virus type 2. The assay is described as follows: Antiviral activity against DENV2 PL046 infected in hamster BHK-21 cells assessed as reduction in plaque forming unit incubated for 7 days by crystal violet staining analysis. Format: functional, organism-based. To be noted: PL046, BHK-21, 168 h.
Assay [4] can be described thus: Binding affinity to Dengue virus serotype 2 envelope stem (419 to 447 residues) trimer peptide incubated for 3 hrs by fluorescence polarization assay. More on the design: species or system dengue virus type 2.
In assay [5] the test system is dengue virus type 2. The assay is described as follows: Antiviral activity against DENV2 infected in human HEK293 cells assessed as reduction in viral load incubated for 3 days by plaque reduction assay. The format is functional. The settings on record: HEK293, 72 h, time 3 day.
The test system of assay [6] is dengue virus type 2. Description: Antiviral activity against DENV2 ThNH-7/93 infected in hamster BHK-21 cells assessed as reduction in viral entry incubated for 2 hrs by focus forming assay. Format: functional, organism-based. The settings on record: ThNH-7/93, BHK-21, 2 h.
Assay [7] relates to dengue virus type 2. Description: Antiviral activity against DENV2 ThNH-7/93 infected in hamster BHK-21 cells assessed as reduction in virus titer incubated for 2 hrs by focus forming assay. Format: functional, organism-based. To be noted: ThNH-7/93, BHK-21, 2 h.
Assay [8] concerns dengue virus type 2. The assay is described as follows: Antiviral activity against DENV2 infected in African green monkey Vero E6 cells assessed as inhibition of viral replication incubated for 5 days by crystal violet staining based plaque reduction assay. The format is functional, organism-based. The settings on record: 120 h.
Assay [9] relates to dengue virus type 2. Description: Antiviral activity against DENV2 TSV01 infected in Asian tiger mosquito C6/36 cells assessed as reduction in plaque forming unit incubated for 1 hrs by propidium iodide staining based fluorescence analysis. The format is functional, organism-based. To be noted: TSV01, C6/36, 1 h.
The test system of assay [10] is dengue virus type 2. Description: Antiviral activity against DENV2 infected in African green monkey Vero E6 cells assessed as inhibition of viral titer incubated for 48 hrs by plaque reduction assay. Format: functional, organism-based.
Assay [11] deals with dengue virus type 2. Description: Antiviral activity against DENV2 infected hamster BHK cells assessed as inhibition of virus-induced cytopathogenicity and measured after 20 hrs by flow cytometry. The format is functional, organism-based.
The test system of assay [12] is dengue virus type 2. Description: Antiviral activity against DENV2 16681 infected in African green monkey Vero E6 cells assessed as inhibition of virus-induced cytopathic effect incubated for 1.5 hrs by plaque assay. The format is functional, organism-based. To be noted: Dengue virus, 16681, Vero.

In brackets after ≈: the same amount, converted by molar mass.

As to `CC(=O)N[C@@H]1[C@@H](O[C@@H]2O[C@@H](C(=O)O)[C@@H](O)[C@H](O)[C@H]2O)[C@@H](OS(=O)(=O)O)[C@@H](CO)O[C@H]1O`, the IC50 amounted to 0.3 µg/mL (≈ 0.628 µM) in the assay with dengue virus type 2 [1] and 3 µg/mL (≈ 6.28 µM) with dengue virus type 2 [2]. Consider `C[C@H]1c2cccc(O)c2C(=O)C2=C(O)[C@]3(O)C(=O)C(C(N)=O)=C(O)[C@@H](N(C)C)[C@@H]3[C@@H](O)[C@@H]21` [DOXYCYCLINE], for which, in the assay with dengue virus type 2 [3], the IC50 is 55.6 µM.

`N#C/C(=N\Nc1cccc(Cl)c1)C(=O)c1ccco1` displayed an IC50 in [4] of 15 µM.

For the compound `Nc1c(C(=O)Nc2nc(-c3ccccc3)cs2)sc2nc3c(cc12)CC(c1ccccc1)CC3` (stereo not given), in the assay with dengue virus type 2 [5], the concentration for an effect of 90% (IC90) was found to be 0.112 µM.

As for `CC(=O)N[C@@H]1[C@@H](O[C@@H]2O[C@H](C(=O)O)[C@@H](O)[C@H](O)[C@H]2O)[C@@H](O)[C@@H](OS(=O)(=O)O)O[C@H]1O`, the EC50 in the assay on dengue virus type 2 [6] was found to be 1.5 µg/mL (≈ 3.24 µM). `C[C@@H]1O[C@H](C)[C@@H](O)[C@H](O)[C@@H]1OS(=O)(=O)O`: the half-inhibitory concentration (IC50) in the assay with dengue virus type 2 [7] is 4.7 µg/mL (≈ 19.4 µM). As for `CN(C)[C@@H]1C(O)=C(C(=O)NCN2CCCC2)C(=O)[C@@]2(O)C(O)=C3C(=O)c4c(O)cccc4[C@@](C)(O)[C@H]3C[C@@H]12` [ROLITETRACYCLINE], the half-inhibitory concentration (IC50) in the assay on dengue virus type 2 [3] is 67.1 µM. As to `O=C1O[C@H]2[C@@H]3OC(=O)c4cc(O)c(O)c(O)c4-c4c(cc(O)c(O)c4O)C(=O)OC[C@H]2O[C@@H](OC(=O)c2cc(O)c(O)c(O)c2)[C@@H]3OC(=O)c2cc(O)c(O)c3c2[C@@H]2C1=CC(=O)[C@](O)(O3)C2(O)O` [GERANIIN], the IC50 in the assay with dengue virus type 2 [8] was 1.75 µM. On to `Nc1c(C(=O)Nc2nc(-c3ccccc3)cs2)sc2nc3c(cc12)CN(c1ccccc1)CC3`, for which, in the assay with dengue virus type 2 [5], the IC90 turned out to be 0.025 µM. With `O=C(O)c1cc(=O)c2ccc(S[C@@H](/C=C/C=C/CCOc3ccc(Cl)c(Cl)c3)[C@H](O)c3cccc(C(F)(F)F)c3)cc2o1`, in the assay on dengue virus type 2 [9], the half-maximal inhibitory concentration (IC50) is 6.8 µM. For `CO[C@H]1O[C@H](COS(=O)(=O)O)[C@H](O[C@@H]2O[C@H](CO)[C@H](O)[C@H](C)[C@H]2OS(=O)(=O)O)[C@H](O)[C@H]1OS(=O)(=O)O`, in the assay on dengue virus type 2 [10], the IC50 stood at 0.14 µg/mL (≈ 0.235 µM).

As for `O=P(O)(O)OC[C@H]1O[C@H](OC2[C@H](OS(=O)(=O)O)[C@@H](OC3C(OS(=O)(=O)O)O[C@H](COS(=O)(=O)O)[C@@H](OS(=O)(=O)O)[C@@H]3OS(=O)(=O)O)O[C@H](COS(=O)(=O)O)[C@H]2OS(=O)(=O)O)[C@@H](OS(=O)(=O)O)[C@@H](OS(=O)(=O)O)[C@@H]1OS(=O)(=O)O` (stereo not given in full), the concentration for a half-maximal effect (EC50) in the assay on dengue virus type 2 [11] worked out at 200 µg/mL (≈ 144 µM). As for `O=C(O)C[C@@H]1C(=O)O[C@H]2[C@@H]3OC(=O)c4cc(O)c(O)c(O)c4-c4c(cc(O)c(O)c4O)C(=O)OC[C@H]2O[C@@H](OC(=O)c2cc(O)c(O)c(O)c2)[C@@H]3OC(=O)c2cc(O)c(O)c3c2[C@H]1[C@H](O)C(=O)O3` [CHEBULAGIC ACID], the half-maximal effective concentration (EC50) in the assay on dengue virus type 2 [12] worked out at 13.1 µM. For the compound `O=S(=O)(O)O[C@@H]1[C@@H](OS(=O)(=O)O)[C@H](O[C@@H]2CO[C@@H](O)[C@H](OS(=O)(=O)O)[C@H]2OS(=O)(=O)O)OC[C@H]1O`, the EC50 with dengue virus type 2 [11] was found to be 30 µg/mL (≈ 49.8 µM).
